Experimental data reported in ChEMBL document CHEMBL1201862, “PubChem BioAssay data set” (2004).
The source made the active and inactive calls.

Key:
Ephrin type-A receptor 4 = Ephrin type-A receptor 4 (Mus musculus, UniProt Q03137); experiment: inhibitors of EphA4 binding to KYL peptide, primary screen, biochemical, colorimetric, mouse EphA4 (AID 689); format: functional
[1] = target: Muscarinic acetylcholine receptor M1 (Rattus norvegicus, UniProt P08482); experiment: rat M1 positive allosteric modulator potency, dose response, cell-based, calcium mobilization, CHO-K1, ACh EC20 (AID 2425); format: functional
Sequence of Muscarinic acetylcholine receptor M1 (P08482 whole entry, the tested form may be a part): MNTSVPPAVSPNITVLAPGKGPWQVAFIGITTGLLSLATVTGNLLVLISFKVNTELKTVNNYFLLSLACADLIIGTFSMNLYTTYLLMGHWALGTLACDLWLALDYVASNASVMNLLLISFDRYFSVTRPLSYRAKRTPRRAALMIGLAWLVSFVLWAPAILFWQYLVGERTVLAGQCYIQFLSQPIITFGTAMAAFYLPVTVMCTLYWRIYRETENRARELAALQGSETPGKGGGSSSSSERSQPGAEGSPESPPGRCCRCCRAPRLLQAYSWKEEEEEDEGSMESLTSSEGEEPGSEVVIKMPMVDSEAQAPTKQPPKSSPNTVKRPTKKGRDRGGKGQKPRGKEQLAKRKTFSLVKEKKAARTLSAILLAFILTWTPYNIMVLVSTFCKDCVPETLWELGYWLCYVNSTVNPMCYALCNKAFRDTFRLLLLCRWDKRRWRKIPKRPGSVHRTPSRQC

Fibrinogen beta chain [2] = target: T1, Fibrinogen beta chain (Homo sapiens, UniProt P02675); experiment: Fluorescence polarization-based biochemical high throughput dose response assay to identify inhibitors that disrupt the binding of a cyclic peptide (Tn6) to the fibrin proteolytic product D-Dimer and fragment E complex [DD(E )].
T1 sequence (P02675 whole entry, the tested form may be a part): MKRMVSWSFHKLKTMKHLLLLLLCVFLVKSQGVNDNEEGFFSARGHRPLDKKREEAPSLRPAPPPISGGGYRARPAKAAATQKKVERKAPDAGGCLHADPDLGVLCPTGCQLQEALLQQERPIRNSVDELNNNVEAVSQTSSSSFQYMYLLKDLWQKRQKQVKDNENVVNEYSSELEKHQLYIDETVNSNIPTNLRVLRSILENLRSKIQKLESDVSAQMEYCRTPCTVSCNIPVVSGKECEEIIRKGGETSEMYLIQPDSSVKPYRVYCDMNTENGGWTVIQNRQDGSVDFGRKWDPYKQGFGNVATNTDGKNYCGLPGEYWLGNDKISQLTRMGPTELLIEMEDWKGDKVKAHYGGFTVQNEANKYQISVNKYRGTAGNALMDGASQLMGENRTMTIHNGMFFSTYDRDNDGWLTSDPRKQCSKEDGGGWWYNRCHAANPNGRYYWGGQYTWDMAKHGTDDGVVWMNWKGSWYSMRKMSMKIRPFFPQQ

Fibrinogen beta chain [3] = target: T1, Fibrinogen beta chain; experiment: Fluorescence polarization-based biochemical high throughput dose response assay to identify inhibitors that disrupt the binding of a cyclic peptide (Tn7) to the fibrin proteolytic product D-Dimer and fragment E complex [DD(E )].
[4] = target: Ubiquitin carboxyl-terminal hydrolase BAP1 (Homo sapiens, UniProt Q92560); experiment: BAP1 deubiquitinase inhibitors, dose response, biochemical (AID 714); format: functional
Sequence of Ubiquitin carboxyl-terminal hydrolase BAP1 (Q92560 whole entry): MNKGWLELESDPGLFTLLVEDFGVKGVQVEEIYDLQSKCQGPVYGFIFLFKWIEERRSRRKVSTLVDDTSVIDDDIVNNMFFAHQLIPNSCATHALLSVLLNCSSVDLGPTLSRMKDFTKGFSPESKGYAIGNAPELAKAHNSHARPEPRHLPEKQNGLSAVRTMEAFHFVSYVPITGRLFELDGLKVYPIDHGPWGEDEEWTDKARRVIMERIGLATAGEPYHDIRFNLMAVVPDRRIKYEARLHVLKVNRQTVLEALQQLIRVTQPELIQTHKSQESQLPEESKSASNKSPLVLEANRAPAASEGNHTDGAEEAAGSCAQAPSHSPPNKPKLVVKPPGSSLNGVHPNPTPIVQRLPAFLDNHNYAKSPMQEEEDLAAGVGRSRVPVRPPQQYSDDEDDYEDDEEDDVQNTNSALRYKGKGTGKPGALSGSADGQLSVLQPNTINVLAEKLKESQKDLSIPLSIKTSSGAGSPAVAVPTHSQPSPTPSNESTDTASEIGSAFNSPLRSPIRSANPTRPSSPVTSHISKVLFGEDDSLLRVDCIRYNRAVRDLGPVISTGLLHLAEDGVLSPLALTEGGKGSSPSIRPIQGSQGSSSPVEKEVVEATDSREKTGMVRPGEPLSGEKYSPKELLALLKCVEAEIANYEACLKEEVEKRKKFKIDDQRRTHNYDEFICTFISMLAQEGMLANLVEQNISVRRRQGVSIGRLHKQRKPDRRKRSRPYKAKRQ

[5] = NIH-3T3 fibroblast cytotoxicity, dose response, cytotoxicity control, cell-based, fluorescence, Alamar Blue, secondary assay (AID 2327); format: functional;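 also: NIH-3T3 mouse fibroblasts cultured with fluconazole at 8 µg/mL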
[6] = tested on: Streptococcus sp. 'group A'; experiment: growth inhibition of control SK(-) GAS strain, dose response, counter-screen for streptokinase expression inhibitor project, luminescence, kanamycin, BacTiterGlo, confirmation (AID 1900); format: functional, organism-based
[7] = target: Luciferin 4-monooxygenase (Photinus pyralis, UniProt P08659); experiment: Counter Screen for Luciferase-based Assay Positives. [Related pubchem assays: 620, 618, 411 ]
Sequence of Luciferin 4-monooxygenase (P08659 whole entry): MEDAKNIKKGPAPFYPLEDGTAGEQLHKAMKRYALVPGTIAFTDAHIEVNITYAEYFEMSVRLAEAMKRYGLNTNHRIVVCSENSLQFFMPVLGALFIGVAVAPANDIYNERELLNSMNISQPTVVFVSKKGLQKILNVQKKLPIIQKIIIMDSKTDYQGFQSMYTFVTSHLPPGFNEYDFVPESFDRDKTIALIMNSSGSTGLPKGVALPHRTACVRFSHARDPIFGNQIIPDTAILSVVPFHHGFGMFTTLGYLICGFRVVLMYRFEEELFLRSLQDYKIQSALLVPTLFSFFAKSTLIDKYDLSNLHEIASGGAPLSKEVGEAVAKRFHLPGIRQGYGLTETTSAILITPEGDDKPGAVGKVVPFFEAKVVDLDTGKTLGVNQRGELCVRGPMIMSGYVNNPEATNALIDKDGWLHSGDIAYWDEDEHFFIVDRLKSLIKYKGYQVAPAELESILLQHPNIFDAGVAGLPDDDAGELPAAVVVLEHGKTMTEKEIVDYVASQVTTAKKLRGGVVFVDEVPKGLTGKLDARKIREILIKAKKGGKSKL

cells [8] = format: functional, cell-based
[9] = C. albicans growth with fluconazole, confirmation, fluorescence, retest (AID 2467); format: functional, cell-based
cells [10] = format: functional, cell-based; remark: listed apart in the source
HT-1080 = experiment: cytotoxicity in HT1080 fibrosarcoma cells, cell-based, fluorescence readout (AID 620); format: functional; details: Homo sapiens
Streptococcus = experiment: Group A Streptococcus viability loss, dose response, counter-screen for streptokinase expression inhibitor project, luminescence, BacTiterGlo (AID 1915); format: functional, organism-based;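 also: potency for reduction of bacterial viability or growth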
Coagulation factor XII = target: T2, Coagulation factor XII (Homo sapiens, UniProt P00748); experiment: FXIIa inhibitor potency, concentration-response, biochemical (AID 716); format: functional
T2 sequence (P00748 whole entry): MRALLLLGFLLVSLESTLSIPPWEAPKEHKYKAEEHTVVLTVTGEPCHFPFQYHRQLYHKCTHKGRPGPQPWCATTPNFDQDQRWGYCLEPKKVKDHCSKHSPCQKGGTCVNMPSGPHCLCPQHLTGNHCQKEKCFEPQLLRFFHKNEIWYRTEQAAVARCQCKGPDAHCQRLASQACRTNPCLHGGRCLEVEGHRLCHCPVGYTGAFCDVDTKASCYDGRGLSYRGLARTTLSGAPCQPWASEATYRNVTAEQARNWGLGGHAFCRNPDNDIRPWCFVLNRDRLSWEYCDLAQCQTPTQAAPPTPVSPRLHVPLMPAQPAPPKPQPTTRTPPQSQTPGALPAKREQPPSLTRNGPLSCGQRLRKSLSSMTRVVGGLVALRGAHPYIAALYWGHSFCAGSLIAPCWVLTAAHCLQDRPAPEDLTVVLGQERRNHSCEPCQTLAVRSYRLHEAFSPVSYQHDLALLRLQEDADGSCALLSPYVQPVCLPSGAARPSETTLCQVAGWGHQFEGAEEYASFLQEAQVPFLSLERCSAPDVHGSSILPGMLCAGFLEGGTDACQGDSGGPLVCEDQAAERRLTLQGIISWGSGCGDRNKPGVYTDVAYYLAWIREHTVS

[11] = target: T3, Microphthalmia-associated transcription factor (Homo sapiens, UniProt O75030); experiment: TRPM1 promoter luciferase signal decrease, dose response, MITF inhibitor project, cell-based, SK-MEL-5, cherry-picked, set 3 (AID 493073); format: functional
T3 sequence (O75030 whole entry): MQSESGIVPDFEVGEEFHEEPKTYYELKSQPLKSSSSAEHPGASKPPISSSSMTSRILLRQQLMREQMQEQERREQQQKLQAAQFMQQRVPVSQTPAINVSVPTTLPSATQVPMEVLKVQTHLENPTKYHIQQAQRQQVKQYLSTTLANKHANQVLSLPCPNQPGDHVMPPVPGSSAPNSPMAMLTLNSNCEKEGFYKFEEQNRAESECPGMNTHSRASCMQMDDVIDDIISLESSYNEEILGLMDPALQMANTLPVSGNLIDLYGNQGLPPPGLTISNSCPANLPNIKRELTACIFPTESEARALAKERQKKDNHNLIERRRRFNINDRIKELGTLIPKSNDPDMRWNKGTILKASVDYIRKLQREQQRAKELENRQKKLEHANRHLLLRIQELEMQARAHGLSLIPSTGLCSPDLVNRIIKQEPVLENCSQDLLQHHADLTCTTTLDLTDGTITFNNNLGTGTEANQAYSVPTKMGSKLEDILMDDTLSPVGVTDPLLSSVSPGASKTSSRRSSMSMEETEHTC

[12] = Shn3 3'UTR reporter inhibitors, dose response, cell-based, Clone20 osteoblasts, firefly luciferase, cherry-picked (AID 624132); format: functional;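 also: firefly luciferase luminescence from reporter carrying the Shn3 3'UTR in osteoblasts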
[13] = HepG2 cell cytotoxicity, dose response, cytotoxicity control for Shn3 inhibitor project, CellTiter-Glo, cherry-picked (AID 624134); format: functional, cell-based
[14] = control 3'UTR Renilla luciferase suppression, dose response, counter-screen for Shn3 inhibitor project, cell-based, Clone20-Shn3RL, cherry-picked (AID 624133); format: functional
[15] = HepG2 hepatoma cell cytotoxicity, dose response, cytotoxicity control, CellTiter-Glo luminescence, dry powder, set 3 (AID 720594); format: functional, cell-based
[16] = HEK293T cell cytotoxicity, dose response, cytotoxicity control, CellTiter-Glo luminescence, dry powder, set 2 (AID 720595); format: functional, cell-based; details: HEK293
[17] = HeLa cell cytotoxicity, dose response, cytotoxicity control, CellTiter-Glo luminescence, dry powder, set 2 (AID 720593); format: functional, cell-based
[18] = HEK293T cytotoxicity, dose response, cytotoxicity control for miR-122 modulator project, cell-based, inhibitor set, cherry-pick, set 2 (AID 720697); format: functional
[19] = HEK293T cytotoxicity, dose response, cytotoxicity control for miR-122 modulator project, cell-based, activator set, cherry-pick (AID 720690); format: functional;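 also: HEK293T human cells scored for general mammalian cytotoxicity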
[20] = M. tuberculosis growth inhibition, HTS (AID 449762); format: functional

Sequence of Ephrin type-A receptor 4 (Q03137 whole entry): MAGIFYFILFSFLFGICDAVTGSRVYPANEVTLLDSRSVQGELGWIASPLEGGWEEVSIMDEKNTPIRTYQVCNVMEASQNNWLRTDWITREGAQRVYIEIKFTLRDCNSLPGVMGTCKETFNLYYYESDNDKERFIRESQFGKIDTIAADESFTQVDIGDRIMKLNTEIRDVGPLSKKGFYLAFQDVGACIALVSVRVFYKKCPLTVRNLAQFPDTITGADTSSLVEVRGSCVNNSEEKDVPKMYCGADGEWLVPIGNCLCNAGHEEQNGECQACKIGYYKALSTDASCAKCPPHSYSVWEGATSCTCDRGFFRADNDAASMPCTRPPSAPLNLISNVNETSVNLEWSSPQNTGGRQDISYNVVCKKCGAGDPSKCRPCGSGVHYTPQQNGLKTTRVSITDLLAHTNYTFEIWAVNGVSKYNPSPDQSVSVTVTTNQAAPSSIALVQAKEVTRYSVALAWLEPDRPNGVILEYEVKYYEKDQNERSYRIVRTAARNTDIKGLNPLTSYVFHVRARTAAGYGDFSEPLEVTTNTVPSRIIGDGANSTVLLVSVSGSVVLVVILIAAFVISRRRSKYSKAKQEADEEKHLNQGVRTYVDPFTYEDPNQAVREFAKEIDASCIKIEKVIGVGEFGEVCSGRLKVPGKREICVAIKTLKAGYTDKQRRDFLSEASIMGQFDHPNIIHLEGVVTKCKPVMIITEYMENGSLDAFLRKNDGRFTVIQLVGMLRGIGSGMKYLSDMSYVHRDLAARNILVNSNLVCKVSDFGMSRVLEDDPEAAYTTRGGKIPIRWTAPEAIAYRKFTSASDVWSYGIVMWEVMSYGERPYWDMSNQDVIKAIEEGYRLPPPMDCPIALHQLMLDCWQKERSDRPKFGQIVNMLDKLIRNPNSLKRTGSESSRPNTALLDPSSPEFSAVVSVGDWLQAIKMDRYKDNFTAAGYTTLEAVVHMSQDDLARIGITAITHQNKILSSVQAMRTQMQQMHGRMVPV

With CCCCN(CCCC)c1nc2ccccc2nc1/C(C#N)=C(/O)OCC the IC50 (Ephrin type-A receptor 4) was 5.65 µM (active).

For Cc1cc(NC(=O)CS(=O)(=O)c2cn(Cc3cc(Br)ccc3F)c3ccccc23)no1, the EC50 [1] was 1.42 µM (active).

For Cc1cc2c(cc1S(=O)(=O)N1CCN(c3cccc(C)c3C)CC1)OCCN2C, the IC50 (Fibrinogen beta chain [2]) was 10.1 µM (inactive) and the IC50 (Fibrinogen beta chain [3]) was > 83.3 µM (inactive).

In the case of O=C(CSc1nc2c(c(=O)n1-c1ccc(Cl)cc1)SCC2)Nc1ccc2c(c1)OCCO2, the IC50 [4] was 38.6 µM (not active).

For CC(C)C(=O)NC(c1ccco1)c1ccc2cccnc2c1O (centres undefined), the EC50 [5] was 4.72 µM (inconclusive), the EC50 [6] was 3.15 µM (active) and the EC50 [7] was 38.8 µM (active). The EC50 (cells [8]) was 16.5 µM (active), the EC50 [9] was 1.6 µM (active) and the EC50 (cells [10]) was > 350 µM (not active). The EC50 (HT-1080) was > 50 µM (not active), the EC50 (Streptococcus) was 3.87 µM (active) and the IC50 (Coagulation factor XII) was > 50 µM (inactive). For the same compound, the AC50 [11] was 8.18 µM (active), the AC50 [12] was 2.05 µM (active) and the AC50 [13] was 3.1 µM (active). The AC50 [14] was 4.36 µM (active), the AC50 [15] was > 52 µM (inactive) and the AC50 [16] was 6.24 µM (active). The AC50 [17] was > 52 µM (inactive), the AC50 [18] was 3.72 µM (active) and the AC50 [19] was 5 µM (active).

In the case of CCCNC(=O)NC(=O)COc1ccc2oc3ccccc3c2c1, the IC50 [20] was > 100 µM (active).
